Measured values as given in US12162867B2, “Inhibitors of RNA helicase DHX9 and uses thereof” (ACCENT THERAPEUTICS, INC., priority 2022, dated 2024).

System: circBRIP1 in HCT116 cells
Experiment: DHX9 circBRIP1 cellular target engagement TaqMan Multiplex assay (qPCR)
Type: cell-based
Details: Homo sapiens, HCT-116, circBRIP1, HCT116 cells; * Taqman assay was used; read-out: DHX9 Cellular Target Engagement EC50

| SMILES | EC50 |
| --- | --- |
| Cc1sc(C(=O)Nc2cc(Cl)cc(NS(C)(=O)=O)c2)cc1-c1ncc(F)cc1N1CCC2(CC1)CC2 [Example 507] | 1860 nM |
| CC(C)Oc1cc(N2CC(F)(F)C2)cnc1-c1cc(C(=O)Nc2cc(Cl)cc(NS(C)(=O)=O)c2)cn1C [Example 513] | 133 nM |
| Cn1cc(C(=O)Nc2cc(Cl)cc(NS(C)(=O)=O)c2)cc1-c1ccc(N2CC(S(C)(=O)=O)C2)cn1 [Example 519] | 191 nM |
| Cc1sc(C(=O)Nc2cc(Cl)cc(NS(=O)(=O)CCO)c2)cc1-c1ncc(N2CC(C(F)(F)F)C2)cc1F [Example 529] | 253 nM |
| Cn1cc(C(=O)Nc2cc(Cl)cc(NS(=O)(=O)C3CC3)c2)cc1-c1ccc(N2CC(F)(F)C2)cn1 [Example 530] | > 10000 nM |
| CCCS(=O)(=O)Nc1cc(Cl)cc(NC(=O)c2cc(-c3ccc(N4CC(F)(F)C4)cn3)n(C)c2)c1 [Example 531] | > 10000 nM |
| CCS(=O)(=O)Nc1cc(Cl)cc(NC(=O)c2cc(-c3ncc(F)cn3)n(C)c2)c1 [Example 542] | 307 nM |
| CCS(=O)(=O)Nc1cc(Cl)cc(NC(=O)c2cc(-c3ncc(F)cc3F)n(C)c2)c1 [Example 543] | 183 nM |
| Cn1cc(C(=O)Nc2cc(Cl)cc(NS(C)(=O)=O)c2)cc1-c1ncc(F)cc1Cl [Example 544] | 538 nM |
| Cc1cc(F)cnc1-c1cc(C(=O)Nc2cc(Cl)cc(NS(C)(=O)=O)c2)cn1C [Example 545] | 192 nM |
| Cn1cc(C(=O)Nc2cc(Cl)cc(NS(C)(=O)=O)c2)cc1-c1cc(N2CC(F)(F)C2)ccn1 [Example 552] | 238 nM |
| Cn1cc(C(=O)Nc2cc(Cl)cc(NS(C)(=O)=O)c2)cc1-c1ncc(C(F)(F)F)cc1F [Example 554] | 238 nM |
| Cn1cc(C(=O)Nc2cc(F)cc(NS(C)(=O)=O)c2)cc1-c1ncc(F)cc1F [Example 558] | 2910 nM |
| CCOc1cc(F)cnc1-c1cc(C(=O)Nc2cc(Cl)cc(NS(C)(=O)=O)c2)cn1C [Example 561] | 274 nM |
| CS(=O)(=O)Nc1cc(Cl)cc(NC(=O)c2cc(-c3ncc(F)cn3)n(CC(F)(F)F)c2)c1 [Example 562] | 543 nM |
| COc1cnc(-c2cc(C(=O)Nc3cc(Cl)cc(NS(C)(=O)=O)c3)cn2CC(F)(F)F)nc1 [Example 563] | 327 nM |
| CS(=O)(=O)Nc1cc(Cl)cc(NC(=O)c2cc(-c3ncccc3F)n(CC(F)(F)F)c2)c1 [Example 564] | 761 nM |
| CCS(=O)(=O)Nc1cc(Cl)cc(NC(=O)c2cc(-c3ncc(OC(C)(C)C)cn3)c(C)s2)c1 [Example 566] | 156 nM |
| Cn1cc(C(=O)Nc2cc(Cl)cc(NS(C)(=O)=O)c2)cc1-c1c(F)cc(F)c[n+]1[O-] [Example 567] | 340 nM |
| Cc1cnc(-c2cc(C(=O)Nc3cc(Cl)cc(NS(C)(=O)=O)c3)cn2C)c(F)c1 [Example 580] | 156 nM |
| Cn1cc(C(=O)Nc2cc(Cl)cc(NS(=O)(=O)CCO)c2)cc1-c1ncc(F)cc1F [Example 581] | 1680 nM |
| Cc1sc(C(=O)Nc2cc(Cl)cc(NS(=O)(=O)CCO)c2)cc1-c1ncc(OC(C)C)cn1 [Example 582] | 210 nM |
| Cc1sc(C(=O)Nc2cc(Cl)cc(NS(C)(=O)=O)c2)cc1-c1ncc(O)cn1 [Example 583] | 43.1 nM |
| CCc1sc(C(=O)Nc2cc(Cl)cc(NS(C)(=O)=O)c2)cc1-c1ncccc1F [Example 587] | 128 nM |

| SMILES | EC50 |
| --- | --- |
| CCc1sc(C(=O)Nc2cc(Cl)cc(NS(C)(=O)=O)c2)cc1-c1ncc(F)cc1F [Example 588] | 461 nM |
| CCc1sc(C(=O)Nc2cc(Cl)cc(NS(C)(=O)=O)c2)cc1-c1ccc(F)cn1 [Example 589] | 117 nM |
| Cn1cc(C(=O)Nc2cc(Cl)cc(NS(C)(=O)=O)c2)cc1-c1ccc(N2CCN(C(=O)C(C)(C)C)CC2)cn1 [Example 591] | 130 nM |
| Cn1cc(C(=O)Nc2cc(Cl)cc(NS(C)(=O)=O)c2)cc1-c1ccc(N2CCN(C(=O)C3CCCC3)CC2)cn1 [Example 592] | 303 nM |
| Cn1cc(C(=O)Nc2cc(Cl)cc(NS(C)(=O)=O)c2)cc1-c1ccc(N2CCN(C(=O)C3CCC3)CC2)cn1 [Example 593] | 170 nM |
| Cn1cc(C(=O)Nc2cc(Cl)cc(NS(C)(=O)=O)c2)cc1-c1ccc(N2CCN(C(=O)C3CC3)CC2)cn1 [Example 594] | 140 nM |
| Cc1cc(N2CCC(F)(F)CC2)cnc1-c1cc(C(=O)Nc2cc(Cl)cc(NS(C)(=O)=O)c2)cn1C [Example 600] | 186 nM |
| Cc1cc(N2CCC(F)(F)CC2)cnc1-c1cc(C(=O)Nc2cc(Cl)cc(NS(C)(=O)=O)c2)sc1C [Example 602] | 180 nM |
| Cc1ccnc(OCc2cncc(F)c2)c1-c1cc(C(=O)Nc2cc(Cl)cc(NS(C)(=O)=O)c2)cn1C [Example 624] | 442 nM |
| Cn1cc(C(=O)Nc2cc(Cl)cc(NS(C)(=O)=O)c2)cc1-c1ncc(F)cc1OCc1nnnn1C [Example 625] | 1010 nM |
| Cc1sc(C(=O)Nc2cc(Cl)cc(NS(C)(=O)=O)c2)cc1-c1ncc(OC2CNC2)cc1F [Example 637] | 427 nM |
| CN1CC(Oc2cnc(-c3cc(C(=O)Nc4cc(Cl)cc(NS(C)(=O)=O)c4)cn3CC(F)(F)F)c(F)c2)C1 [Example 638] | 62.1 nM |
| CN1CC[C@H](Oc2cnc(-c3cc(C(=O)Nc4cc(Cl)cc(NS(C)(=O)=O)c4)cn3C)c(F)c2)C1 [Example 639, N-(3-chloro-5-methanesulfonamidophenyl)-5-(3-fluoro-5-{[(3S)-1-methylpyrrolidin-3-yl]oxy}pyridin-2-yl)-1-methylpyrrole-3-carboxamide] | 26.6 nM |
| CN1CC[C@@H](Oc2cnc(-c3cc(C(=O)Nc4cc(Cl)cc(NS(C)(=O)=O)c4)cn3C)c(F)c2)C1 [Example 640] | 16.2 nM |
| CN1CC[C@@H](Oc2cnc(-c3cc(C(=O)Nc4cc(Cl)cc(NS(C)(=O)=O)c4)cn3CC(F)(F)F)nc2)C1 [Example 641] | 55.2 nM |
| CN1CC[C@H](Oc2cnc(-c3cc(C(=O)Nc4cc(Cl)cc(NS(C)(=O)=O)c4)cn3CC(F)(F)F)nc2)C1 [Example 642] | 94.5 nM |
| Cc1sc(C(=O)Nc2cc(Cl)cc(NS(C)(=O)=O)c2)cc1-c1ccc(P(C)(C)=O)cn1 [Example 647] | 998 nM |
| Cc1sc(C(=O)Nc2cc(Cl)cc(NS(C)(=O)=O)c2)cc1-c1ncc(P(C)(C)=O)cn1 [Example 648] | 471 nM |
| CS(=O)(=O)Nc1cc(Cl)cc(NC(=O)c2cc(-c3ncc(OC4CN(S(C)(=O)=O)C4)cn3)n(CC(F)(F)F)c2)c1 [Example 651] | 535 nM |
| CS(=O)(=O)Nc1cc(Cl)cc(NC(=O)c2cc(-c3ncc(F)cn3)n(C3CNC3)c2)c1 [Example 652] | 3770 nM |
| Cc1sc(C(=O)Nc2cc(Cl)cc(NS(C)(=O)=O)c2)cc1-c1ncc(C(C)(O)C2CN(C)C2)cc1F (stereo not shown) [Example 653] | 292 nM |
| Cc1cc(F)cc(C#N)c1-c1cc(C(=O)Nc2cc(Cl)cc(NS(C)(=O)=O)c2)cn1C [Example 659] | > 10000 nM |
| Cc1sc(C(=O)Nc2cc(Cl)cc(NS(C)(=O)=O)c2)cc1N1C(=O)N(C)C(C)(c2ccccn2)C1=O (stereo not shown) [Example 660] | > 10000 nM |
| Cc1cc(C(=O)Nc2cc(Cl)cc(NS(C)(=O)=O)c2)cn1-c1ncc(OC(C)(C)C)cc1F [Example 662] | 140 nM |

| SMILES | EC50 |
| --- | --- |
| Cc1cc(C(=O)Nc2cc(Cl)cc(NS(C)(=O)=O)c2)cn1-c1ccc(OC(C)(C)C)cn1 [Example 663] | 124 nM |
| Cc1cc(C(=O)Nc2cc(Cl)cc(NS(C)(=O)=O)c2)cn1-c1ncc(F)cc1-c1cncc(F)c1 [Example 666] | 427 nM |
| CC(C)n1cc(C(=O)Nc2cc(Cl)cc(NS(C)(=O)=O)c2)cc1-c1ncc(F)cn1 [Example 667] | 804 nM |
| Cc1cc(C(=O)Nc2cc(Cl)cc(NS(C)(=O)=O)c2)cn1-c1ccc(OC2COC2)cn1 [Example 668] | 220 nM |
| Cc1sc(C(=O)Nc2cc(Cl)cc(NS(C)(=O)=O)c2)cc1-c1ncc(OC(C)(C)C(=O)O)cn1 [Example 670] | > 10000 nM |
| Cc1sc(C(=O)Nc2cc(Cl)cc(NS(C)(=O)=O)c2)cc1-c1ncc(OC(C)C(=O)O)cn1 (stereo not shown) [Example 671] | > 10000 nM |
| Cc1cc(C(=O)Nc2cc(Cl)cc(NS(C)(=O)=O)c2)cn1-c1ncc(N2CC(F)(F)C2)cc1OC(C)C [Example 672] | 154 nM |
| Cc1cc(C(=O)Nc2cc(Cl)cc(NS(C)(=O)=O)c2)cn1-c1ncc(N2CC(F)(F)C2)cc1OC1CCC1 [Example 673] | 130 nM |
| Cc1sc(C(=O)Nc2cc(Cl)cc(NS(C)(=O)=O)c2)cc1-c1ncc(OC(C)CO)cn1 (stereo not shown) [Example 677] | 13.7 nM |
| CN1CC(Oc2cnc(-c3cc(C(=O)Nc4cc(Cl)cc(NS(C)(=O)=O)c4)cn3CC(F)F)nc2)C1 [Example 679] | 196 nM |
| Cc1sc(C(=O)Nc2cc(Cl)cc(NS(C)(=O)=O)c2)cc1-c1ncc(C2(O)CN(C)C2)cc1F [Example 681] | 133 nM |
| Cc1sc(C(=O)Nc2cc(Cl)cc(NS(C)(=O)=O)c2)c(F)c1-c1ncc(OC(C)C)cn1 [Example 683] | > 10000 nM |
| Cc1cccnc1-c1csc(C(=O)Nc2cc(Cl)cc(NS(C)(=O)=O)c2)c1C [Example 684] | > 10000 nM |
| Cn1cc(C(=O)Nc2cc(Cl)cc(NS(C)(=O)=O)c2)cc1-c1ncc(OC2CN(C(=O)C3CC3)C2)cc1F [Example 697] | 329 nM |
| CCS(=O)(=O)Nc1cc(Cl)cc(NC(=O)c2cc(-c3ncc(C(F)(F)F)cc3C)c(C)s2)c1 [Example 700] | 871 nM |
| CS(=O)(=O)Nc1cc(Cl)cc(NC(=O)c2cc(-c3ccc(F)cn3)n(S(C)(=O)=O)c2)c1 [Example 701] | 638 nM |
| COc1ccc(F)c(-c2cc(C(=O)Nc3cc(Cl)cc(NS(C)(=O)=O)c3)cn2C)n1 [Example 703] | 387 nM |
| Cc1sc(C(=O)Nc2cc(Cl)cc(NS(C)(=O)=O)c2)cc1-c1ncc(S(C)(=O)=O)cn1 [Example 711] | 170 nM |
| CS(=O)(=O)Nc1cc(Cl)cc(NC(=O)c2cc(-c3ncc(F)cn3)n(C3CC3)c2)c1 [Example 712] | 312 nM |
| Cn1cc(C(=O)Nc2cc(Cl)cc(NS(C)(=O)=O)c2)cc1-c1ncc(N2CCN(C(=O)C3CC3)CC2)cc1F [Example 714] | 181 nM |
| Cc1sc(C(=O)Nc2cc(Cl)cc(NS(C)(=O)=O)c2)nc1-c1ccc(F)cn1 [Example 716] | > 10000 nM |
| Cc1nc(COc2cc(F)cnc2-c2cc(C(=O)Nc3cc(Cl)cc(NS(C)(=O)=O)c3)cn2C)cs1 [Example 724] | 224 nM |
